Assay results taken from ChEMBL document CHEMBL5291721, “A preclinical secondary pharmacology resource illuminates target-adverse drug reaction associations of marketed drugs” (Nat Commun, 2023).

Experiments:
Melanocortin receptor 4 = Melanocortin receptor 4 (Homo sapiens, UniProt P32245)
Histamine H2 receptor = Histamine H2 receptor (Homo sapiens, UniProt P25021)
[1] = biological target: T1, Gastric inhibitory polypeptide receptor (Homo sapiens, UniProt P48546)
T1 sequence (P48546 whole entry): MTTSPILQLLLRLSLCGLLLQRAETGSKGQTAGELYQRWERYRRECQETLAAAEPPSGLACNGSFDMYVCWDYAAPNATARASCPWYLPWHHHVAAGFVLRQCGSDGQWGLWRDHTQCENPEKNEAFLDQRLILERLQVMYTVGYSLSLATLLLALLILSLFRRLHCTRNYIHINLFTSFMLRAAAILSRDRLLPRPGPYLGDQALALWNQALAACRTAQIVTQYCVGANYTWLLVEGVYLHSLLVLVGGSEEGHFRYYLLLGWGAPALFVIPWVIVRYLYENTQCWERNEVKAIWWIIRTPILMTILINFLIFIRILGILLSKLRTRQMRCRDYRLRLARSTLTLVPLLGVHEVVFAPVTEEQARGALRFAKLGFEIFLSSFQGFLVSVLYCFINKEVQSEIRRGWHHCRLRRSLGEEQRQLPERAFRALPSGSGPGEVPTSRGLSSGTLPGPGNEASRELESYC

[2] = biological target: T2, Neuropeptide Y receptor type 2 (Homo sapiens, UniProt P49146)
T2 sequence (P49146 whole entry): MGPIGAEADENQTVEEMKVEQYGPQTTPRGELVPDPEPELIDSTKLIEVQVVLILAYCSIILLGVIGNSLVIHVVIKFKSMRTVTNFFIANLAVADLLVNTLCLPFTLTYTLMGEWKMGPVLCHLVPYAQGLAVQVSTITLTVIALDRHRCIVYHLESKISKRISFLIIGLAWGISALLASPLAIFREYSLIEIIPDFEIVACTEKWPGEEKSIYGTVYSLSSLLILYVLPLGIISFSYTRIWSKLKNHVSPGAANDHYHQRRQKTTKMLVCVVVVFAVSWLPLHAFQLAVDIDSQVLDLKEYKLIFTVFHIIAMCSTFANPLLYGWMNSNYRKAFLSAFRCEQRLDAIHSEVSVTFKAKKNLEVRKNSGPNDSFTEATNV

[3] = biological target: T3, 5-hydroxytryptamine receptor 1A (Homo sapiens, UniProt P08908)
T3 sequence (P08908 whole entry): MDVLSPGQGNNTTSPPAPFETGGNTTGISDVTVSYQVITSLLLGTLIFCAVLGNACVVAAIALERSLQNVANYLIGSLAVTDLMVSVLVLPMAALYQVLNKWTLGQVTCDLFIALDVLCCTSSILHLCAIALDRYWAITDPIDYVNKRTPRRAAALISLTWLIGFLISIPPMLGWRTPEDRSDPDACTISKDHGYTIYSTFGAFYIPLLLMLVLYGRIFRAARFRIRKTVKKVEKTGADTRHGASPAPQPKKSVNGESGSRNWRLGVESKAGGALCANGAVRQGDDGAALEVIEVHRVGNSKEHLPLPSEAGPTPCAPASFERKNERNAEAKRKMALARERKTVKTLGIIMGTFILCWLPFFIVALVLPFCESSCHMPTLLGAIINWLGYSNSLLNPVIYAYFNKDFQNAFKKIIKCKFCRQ

B1 bradykinin receptor = biological target: T4, B1 bradykinin receptor (Homo sapiens, UniProt P46663)
T4 sequence (P46663 whole entry): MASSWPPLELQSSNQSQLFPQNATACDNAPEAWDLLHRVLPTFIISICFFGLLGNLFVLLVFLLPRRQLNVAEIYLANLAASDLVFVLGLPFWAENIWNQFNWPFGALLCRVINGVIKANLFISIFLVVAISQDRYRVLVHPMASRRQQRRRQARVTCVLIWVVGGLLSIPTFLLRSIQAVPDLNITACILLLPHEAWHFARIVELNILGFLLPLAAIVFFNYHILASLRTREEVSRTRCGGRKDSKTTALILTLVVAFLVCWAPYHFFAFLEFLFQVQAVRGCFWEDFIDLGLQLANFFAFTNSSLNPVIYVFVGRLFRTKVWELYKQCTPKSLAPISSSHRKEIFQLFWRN

Progesterone receptor = biological target: T5, Progesterone receptor (Homo sapiens, UniProt P06401)
T5 sequence (P06401 whole entry): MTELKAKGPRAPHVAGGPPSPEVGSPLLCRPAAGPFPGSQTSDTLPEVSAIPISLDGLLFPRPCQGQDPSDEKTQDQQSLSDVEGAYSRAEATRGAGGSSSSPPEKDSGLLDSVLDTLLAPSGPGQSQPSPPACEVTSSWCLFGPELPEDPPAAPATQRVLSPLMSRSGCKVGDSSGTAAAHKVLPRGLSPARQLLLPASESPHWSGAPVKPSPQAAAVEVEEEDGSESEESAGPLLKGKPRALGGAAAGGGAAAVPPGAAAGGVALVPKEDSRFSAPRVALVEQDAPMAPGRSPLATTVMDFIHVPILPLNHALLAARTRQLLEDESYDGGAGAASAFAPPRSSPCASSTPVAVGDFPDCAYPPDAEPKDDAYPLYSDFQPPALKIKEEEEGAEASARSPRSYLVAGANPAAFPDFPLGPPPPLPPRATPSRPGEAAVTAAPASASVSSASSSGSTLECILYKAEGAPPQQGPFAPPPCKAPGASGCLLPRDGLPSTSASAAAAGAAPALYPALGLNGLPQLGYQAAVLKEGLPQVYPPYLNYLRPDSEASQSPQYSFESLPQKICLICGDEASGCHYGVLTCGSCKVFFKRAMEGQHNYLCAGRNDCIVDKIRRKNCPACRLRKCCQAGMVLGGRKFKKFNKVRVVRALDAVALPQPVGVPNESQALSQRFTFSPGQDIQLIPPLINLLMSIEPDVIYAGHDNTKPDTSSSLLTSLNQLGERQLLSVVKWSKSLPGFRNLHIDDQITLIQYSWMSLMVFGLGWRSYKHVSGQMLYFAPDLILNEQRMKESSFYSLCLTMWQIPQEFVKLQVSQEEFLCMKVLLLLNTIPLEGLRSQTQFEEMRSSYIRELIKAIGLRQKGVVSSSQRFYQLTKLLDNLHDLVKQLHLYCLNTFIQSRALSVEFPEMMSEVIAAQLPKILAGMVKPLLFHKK

Cannabinoid receptor 1 = Cannabinoid receptor 1 (Homo sapiens, UniProt P21554)
Sequence of Cannabinoid receptor 1 (P21554 whole entry): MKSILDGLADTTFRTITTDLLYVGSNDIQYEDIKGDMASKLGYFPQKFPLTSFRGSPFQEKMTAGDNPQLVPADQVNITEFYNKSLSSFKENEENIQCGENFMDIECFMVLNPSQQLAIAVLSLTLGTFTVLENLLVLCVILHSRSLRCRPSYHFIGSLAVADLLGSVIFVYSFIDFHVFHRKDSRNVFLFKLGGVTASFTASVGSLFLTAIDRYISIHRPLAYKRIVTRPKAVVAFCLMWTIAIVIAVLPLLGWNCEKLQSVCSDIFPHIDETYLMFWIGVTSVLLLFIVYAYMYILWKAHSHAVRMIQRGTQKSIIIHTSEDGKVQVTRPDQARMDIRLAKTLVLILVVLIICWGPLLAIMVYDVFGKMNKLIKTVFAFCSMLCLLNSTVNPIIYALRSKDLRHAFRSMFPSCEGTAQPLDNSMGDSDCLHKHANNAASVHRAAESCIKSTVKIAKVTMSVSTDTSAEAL

[4] = biological target: Gamma-aminobutyric acid receptor subunit alpha-1/alpha-2/beta-2/gamma-2 (Homo sapiens, UniProt P14867+P18507+P47869+P47870); assay type: protein-complex assay
Sequence of Gamma-aminobutyric acid receptor subunit alpha-1/alpha-2/beta-2/gamma-2 (P14867 whole entry): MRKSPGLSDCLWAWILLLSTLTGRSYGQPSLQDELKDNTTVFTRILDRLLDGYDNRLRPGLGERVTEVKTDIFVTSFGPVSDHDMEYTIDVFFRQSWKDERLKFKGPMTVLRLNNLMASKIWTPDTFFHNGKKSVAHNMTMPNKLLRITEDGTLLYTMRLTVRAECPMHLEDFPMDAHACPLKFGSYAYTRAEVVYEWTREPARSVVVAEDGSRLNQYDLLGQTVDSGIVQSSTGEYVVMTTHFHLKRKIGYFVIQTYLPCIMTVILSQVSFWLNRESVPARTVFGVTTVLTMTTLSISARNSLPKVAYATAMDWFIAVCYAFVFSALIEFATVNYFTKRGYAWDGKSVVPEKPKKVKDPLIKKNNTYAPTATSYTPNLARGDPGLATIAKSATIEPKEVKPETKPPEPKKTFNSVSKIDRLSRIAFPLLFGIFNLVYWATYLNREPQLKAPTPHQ
Sequence of Gamma-aminobutyric acid receptor subunit alpha-1/alpha-2/beta-2/gamma-2 (P47870 whole entry): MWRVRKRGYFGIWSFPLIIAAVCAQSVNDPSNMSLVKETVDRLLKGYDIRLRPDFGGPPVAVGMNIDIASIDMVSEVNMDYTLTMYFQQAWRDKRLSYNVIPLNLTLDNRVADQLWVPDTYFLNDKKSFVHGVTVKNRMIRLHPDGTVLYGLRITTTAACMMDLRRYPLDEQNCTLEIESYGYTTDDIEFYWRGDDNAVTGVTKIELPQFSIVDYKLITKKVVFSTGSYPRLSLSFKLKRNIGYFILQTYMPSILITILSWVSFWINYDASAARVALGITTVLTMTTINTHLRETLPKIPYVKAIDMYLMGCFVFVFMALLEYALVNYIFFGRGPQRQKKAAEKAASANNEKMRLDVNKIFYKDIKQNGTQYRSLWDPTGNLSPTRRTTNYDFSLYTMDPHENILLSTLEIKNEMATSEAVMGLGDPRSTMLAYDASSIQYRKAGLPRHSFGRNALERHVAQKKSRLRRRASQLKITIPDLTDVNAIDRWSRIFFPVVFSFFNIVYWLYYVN
Sequence of Gamma-aminobutyric acid receptor subunit alpha-1/alpha-2/beta-2/gamma-2 (P18507 whole entry): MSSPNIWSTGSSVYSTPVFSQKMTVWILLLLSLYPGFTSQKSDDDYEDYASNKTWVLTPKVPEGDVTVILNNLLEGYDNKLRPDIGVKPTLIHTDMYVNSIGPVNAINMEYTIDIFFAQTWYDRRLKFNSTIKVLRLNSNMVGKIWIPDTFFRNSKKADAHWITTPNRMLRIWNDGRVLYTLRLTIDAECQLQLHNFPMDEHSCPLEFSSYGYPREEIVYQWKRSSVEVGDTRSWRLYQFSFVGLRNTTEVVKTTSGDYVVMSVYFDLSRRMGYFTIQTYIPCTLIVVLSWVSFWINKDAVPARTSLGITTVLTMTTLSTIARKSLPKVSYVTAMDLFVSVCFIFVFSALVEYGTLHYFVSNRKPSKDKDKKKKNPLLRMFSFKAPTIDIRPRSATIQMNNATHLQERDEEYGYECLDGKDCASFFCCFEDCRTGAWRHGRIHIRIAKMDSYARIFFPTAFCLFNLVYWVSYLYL
Sequence of Gamma-aminobutyric acid receptor subunit alpha-1/alpha-2/beta-2/gamma-2 (P47869 whole entry): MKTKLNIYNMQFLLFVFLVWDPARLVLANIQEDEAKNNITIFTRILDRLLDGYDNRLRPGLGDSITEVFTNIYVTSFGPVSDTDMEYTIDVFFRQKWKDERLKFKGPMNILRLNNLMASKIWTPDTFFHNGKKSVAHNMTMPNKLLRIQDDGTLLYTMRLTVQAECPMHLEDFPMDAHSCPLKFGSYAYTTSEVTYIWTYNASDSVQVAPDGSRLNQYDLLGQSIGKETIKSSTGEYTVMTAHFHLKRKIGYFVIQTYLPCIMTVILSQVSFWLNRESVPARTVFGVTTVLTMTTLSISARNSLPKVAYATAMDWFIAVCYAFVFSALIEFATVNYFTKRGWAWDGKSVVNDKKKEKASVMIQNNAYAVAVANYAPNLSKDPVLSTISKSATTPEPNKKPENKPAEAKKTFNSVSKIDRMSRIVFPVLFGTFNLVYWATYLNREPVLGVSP
Also: assay procedure not described here.

Sequence of Histamine H2 receptor (P25021 whole entry): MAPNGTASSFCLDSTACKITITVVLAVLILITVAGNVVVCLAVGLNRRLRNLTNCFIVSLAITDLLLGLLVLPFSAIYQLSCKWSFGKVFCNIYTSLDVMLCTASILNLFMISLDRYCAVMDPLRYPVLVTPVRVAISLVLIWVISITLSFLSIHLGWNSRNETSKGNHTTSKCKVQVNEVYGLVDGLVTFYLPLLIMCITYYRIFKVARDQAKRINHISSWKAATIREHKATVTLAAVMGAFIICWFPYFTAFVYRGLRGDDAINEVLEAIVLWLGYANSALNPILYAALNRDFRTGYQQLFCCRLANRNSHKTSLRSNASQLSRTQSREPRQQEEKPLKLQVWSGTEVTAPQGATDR
Sequence of Melanocortin receptor 4 (P32245 whole entry): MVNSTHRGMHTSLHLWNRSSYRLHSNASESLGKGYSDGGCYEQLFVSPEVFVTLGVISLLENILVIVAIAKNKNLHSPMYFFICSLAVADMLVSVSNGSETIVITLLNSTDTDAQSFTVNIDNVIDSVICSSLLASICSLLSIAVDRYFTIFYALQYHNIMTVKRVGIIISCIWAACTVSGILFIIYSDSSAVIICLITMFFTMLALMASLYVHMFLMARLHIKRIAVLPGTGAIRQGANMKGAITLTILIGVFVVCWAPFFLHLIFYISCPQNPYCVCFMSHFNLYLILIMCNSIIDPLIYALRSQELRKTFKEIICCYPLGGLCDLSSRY

| SMILES | AC50 (Melanocortin receptor 4) | AC50 (Histamine H2 receptor) | AC50 [1] | AC50 [2] | AC50 [3] | AC50 (B1 bradykinin receptor) | AC50 (Progesterone receptor) | AC50 (Cannabinoid receptor 1) | AC50 [4] |
| --- | --- | --- | --- | --- | --- | --- | --- | --- | --- |
| CCCc1nc2c(C)cc(-c3nc4ccccc4n3C)cc2n1Cc1ccc(-c2ccccc2C(=O)O)cc1 | > 30 µM | > 10 µM | > 30 µM | > 30 µM | > 10 µM | > 30 µM | > 30 µM | > 30 µM | – |
| O=C(O)Cc1ccccc1Nc1c(Cl)cccc1Cl [DICLOFENAC] | > 30 µM | > 10 µM | > 30 µM | > 30 µM | > 10 µM | > 30 µM | > 30 µM | > 10 µM | > 3 µM |
| O=C(O)Cc1ccccc1Oc1ccc(Cl)cc1Cl [FENCLOFENAC] | > 30 µM | > 10 µM | > 30 µM | > 30 µM | > 10 µM | > 30 µM | > 30 µM | > 10 µM | – |
| Cc1ccc(C)c(OCCCC(C)(C)C(=O)O)c1 [GEMFIBROZIL] | > 30 µM | > 10 µM | > 30 µM | > 30 µM | > 10 µM | > 30 µM | > 30 µM | > 10 µM | – |
| CC[C@H](C)C(=O)O[C@H]1C[C@@H](C)C=C2C=C[C@H](C)[C@H](CC[C@@H]3C[C@@H](O)CC(=O)O3)[C@H]21 [LOVASTATIN] | > 30 µM | > 10 µM | > 30 µM | > 30 µM | > 10 µM | > 30 µM | 29.7 µM | > 10 µM | – |
| CC[C@@H](CO)NC(=O)[C@@H]1C=C2c3cccc4c3c(cn4C)C[C@H]2N(C)C1 [METHYSERGIDE] | > 30 µM | 2.44 µM | > 30 µM | > 30 µM | 0.192 µM | > 30 µM | 16 µM | > 10 µM | – |
| CC(CN1c2ccccc2Sc2ccccc21)N(C)C (configuration not stated) [PROMETHAZINE] | 25 µM | 0.0536 µM | > 30 µM | > 30 µM | 6.7 µM | > 30 µM | > 30 µM | > 10 µM | – |
| CN(CCOc1ccc(CC2SC(=O)NC2=O)cc1)c1ccccn1 (configuration not stated) [ROSIGLITAZONE] | 23.7 µM | > 10 µM | > 30 µM | > 30 µM | > 10 µM | > 30 µM | > 30 µM | 16 µM | – |
| CC(C)[C@H](N)C(=O)OCCOCn1cnc2c(=O)[nH]c(N)nc21 [VALACYCLOVIR] | > 30 µM | > 10 µM | > 30 µM | > 30 µM | > 10 µM | > 30 µM | > 30 µM | > 10 µM | – |
| O=C1Cc2cc(CCN3CCN(c4nsc5ccccc45)CC3)c(Cl)cc2N1 [ZIPRASIDONE] | > 30 µM | 0.596 µM | > 30 µM | > 30 µM | 0.008 µM | > 30 µM | 21.8 µM | > 10 µM | > 30 µM |
